Laboratory results from patent US20220095617A1, “PLANT GROWTH REGULATING AGENT” (IDEMITSU KOSAN CO.,LTD., priority 2019, published 2022).
Values joined by “and” are separate entries in the source; they are usually repeats but may differ in a detail not shown here. Identical values can stand only once. Like-named read-outs stand apart in the source and are kept apart here.

Assays:
Format in all cases: in vivo
lettuce (Green Wave) [1] = assay: Example 9: High-temperature stress pot test (lettuce); conditions: for Fresh weight of above-ground part, Increase rate / Fresh weight of underground part, Increase rate: non-addition group = 100.0; for Fresh weight of above-ground part, Average / Fresh weight of underground part, Average: greenhouse 35° C., 20 days
Protocol: Immediately after the sowing, drenching treatment was carried out with 5 ml/well of a dilution of hesperidin prepared at a final concentration of 100 to 1000 ppm (using water as the solvent). A non-addition group was similarly subjected to drenching treatment using distilled water. High-temperature treatment was carried out by cultivation for 20 days in a greenhouse where the average daytime temperature was 35° C., and then the fresh weight of the above-ground part and the fresh weight of the underground part were evaluated. For each group, 15 to 20 measurement results were obtained (N=15 to 20).

Wheat (Satonosora) = assay: Example 15: Growth-promoting effect (wheat); conditions: for Increase/decrease of above-ground part / Increase/decrease of underground part: non-addition group = 100%; for Weight of above-ground part FW / Weight of underground part FW: 25° C., 14 days
Protocol: Wheat (Satonosora) was sown on pots filled with seedling culture soil (manufactured by Katakura & Co-op Agri Corporation; Kumiai seedling culture soil for gardening Genkikun No. 1) (soil volume, 100 ml). After […] of the germination, drenching treatment was carried out with 5 ml each of dilutions of hesperidin prepared at final concentrations of 10 to 33 ppm (using water as the solvent). […]

Dent corn (34V52) = assay: Example 14: Growth-promoting effect (dent corn); conditions: for Increase/decrease of above-ground part / Increase/decrease of underground part: non-addition group = 100%; for Weight of above-ground part FW / Weight of underground part FW: 25° C., 14 days
Protocol: Dent corn (34V52) was sown on pots filled with seedling culture soil (manufactured by Katakura & Co-op Agri Corporation; Kumiai seedling culture soil for gardening Genkikun No. 1) (soil volume, 130 ml). After confirmation of the germination, drenching treatment was carried out with 5 ml each of dilutions of hesperidin prepared at final concentrations of 1 to 10 ppm (using water as the solvent). […]

Phythophthora infestans = conditions: 14 days
lettuce (Green Wave) [2] = assay: Example 23: Metal stress Petri dish test (lettuce); conditions: Metal stress (AlCl3 100 μM), 1 ppm
[3] = system: Cucumber (Hanjirofushinari); assay: Example 13: Salt stress pot test (cucumber); conditions: foliar spraying 1 ppm (dilution of wettable powder formulation)
Protocol: Cucumber (Hanjirofushinari, Takii & Co., Ltd.) was sown on pots filled with seedling culture soil (manufactured by Katakura & Co-op Agri Corporation; Kumiai seedling culture soil for gardening Genkikun No. 1) (soil volume, 100 ml), and cultivated for 21 days. With a wettable powder formulation containing 1% hesperidin having the formulation composition shown in Table 11, a dilution was prepared such that the final concentration of hesperidin was 1 ppm. For each pot, 10 ml of the dilution was applied by foliar spraying. The cucumber was left to stand in a dilution whose final NaCl concentration was adjusted to 75 mM, and allowed to absorb water from the bottom. Cultivation was carried out in a greenhouse (20 to 25° C.) for 7 days, and then the fresh weight of the above-ground part was measured. For each group, six measurement results were obtained (N=6).

Bent grass (Penncross) = assay: Example 8: High-temperature stress pot test (bent grass); conditions: for Weight of above-ground part, Increase rate: non-addition group = 100.0; for Weight of above-ground part, Average: greenhouse average daytime 50° C., 7 days, fresh weight
Protocol: Bent grass (Penncross, Snow Brand Seed Co., Ltd.) was uniformly sown on pots filled with seedling culture soil (manufactured by Katakura & Co-op Agri Corporation; Kumiai seedling culture soil for gardening Genkikun No. 1) (soil volume, 100 ml), and cultivated for 14 to 20 days, followed by evenly cutting the above-ground part to a length of about 1 cm on the day before application of hesperidin. […] A non-addition group was similarly subjected to drenching treatment using distilled water. High-temperature treatment was carried out by cultivation in a glass greenhouse (average daytime temperature, […]) for 7 days, and then the fresh weight of the above-ground part was evaluated. For each group, three measurement results were obtained (N=3).

[4] = system: Zoysia tenuifolia (Korean velvet grass); assay: Example 12: Low-temperature stress field test (lawn grass); conditions: for Number of sprouts, Average: three months after final spraying, low temperature; for Number of sprouts, Increase rate: non-addition group = 100.0
Protocol: In the research institute, a wettable powder formulation containing 1% hesperidin having the formulation composition shown in Table 11 was applied a total of four times by foliar spraying at a ratio of 0.15 to 0.75 g/m^2 (amount of water sprayed, 250 ml) every other week from late October to late December in 2017. Three months after the final spraying, the lawn grass was collected using a hole cutter, and the number of sprouts was measured. For each group, three measurement results were obtained (N=3).
In the period from November 2017 to March 2018, the highest temperature was 16.6° C.; the lowest temperature was −3.7° C.; and the average temperature was 6.0° C. Since the optimum growth temperature of Zoysia tenuifolia (Korean velvet grass) is 24 to 35° C., and it enters a period of dormancy at 10° C. or less, the plant was judged to have been affected by the low-temperature stress.

Cabbage (Okina) seeds = assay: Example 6: High-temperature stress Petri dish test (cabbage seeds); conditions: for Germination rate, Increase rate / Root length, Increase rate: non-addition group = 100.0; for Root length, Average: after high-temperature treatment; for Germination rate, Average: seeds 52° C. hot water 25 minutes, 23° C. 4 days
Protocol: Cabbage (Okina, Takii & Co., Ltd.) seeds were soaked in hot water at 52° C. for 25 minutes to perform high-temperature treatment. […] A group similarly soaked in distilled water was provided as a non-addition group. After the soaking treatment, the seeds were dried in air, and then 20 seeds were sown on each of shallow Petri dishes in which qualitative filter paper was placed. To the filter paper in each Petri dish, 3 mL of distilled water was uniformly added dropwise. […] For each group, three measurement results were obtained for the germination rate (N=3), and 15 measurement results were obtained for the root length (N=15).

COc1ccc([C@@H]2CC(=O)c3c(O)cc(O[C@@H]4O[C@H](CO[C@@H]5O[C@@H](C)[C@H](O)[C@@H](O)[C@H]5O)[C@@H](O)[C@H](O)[C@H]4O)cc3O2)cc1O [Hesperidin]
Fresh weight of above-ground part, Increase rate (lettuce (Green Wave) [1]; 100 ppm): 114.4% | Fresh weight of underground part, Increase rate (lettuce (Green Wave) [1]; 100 ppm): 122.8% | Fresh weight of above-ground part, Increase rate (lettuce (Green Wave) [1]; 1000 ppm): 109.1% | Fresh weight of underground part, Increase rate (lettuce (Green Wave) [1]; 1000 ppm): 93.9% | Fresh weight of above-ground part, Average (lettuce (Green Wave) [1]; drenching 100 ppm): 0.76 g | Fresh weight of underground part, Average (lettuce (Green Wave) [1]; drenching 100 ppm): 0.29 g | Fresh weight of above-ground part, Average (lettuce (Green Wave) [1]; drenching 1000 ppm): 0.72 g | Fresh weight of underground part, Average (lettuce (Green Wave) [1]; drenching 1000 ppm): 0.22 g | Increase/decrease of above-ground part (Wheat (Satonosora); 10 ppm): 123% | Increase/decrease of underground part (Wheat (Satonosora); 10 ppm): 107% | Increase/decrease of above-ground part (Wheat (Satonosora); 33 ppm): 116% | Increase/decrease of underground part (Wheat (Satonosora); 33 ppm): 104% | Weight of above-ground part FW (Wheat (Satonosora); drenching 10 ppm): 364.9 mg/individual | Weight of underground part FW (Wheat (Satonosora); drenching 10 ppm): 391.6 mg/individual | Weight of above-ground part FW (Wheat (Satonosora); drenching 33 ppm): 345.4 mg/individual | Weight of underground part FW (Wheat (Satonosora); drenching 33 ppm): 382.6 mg/individual | Increase/decrease of above-ground part (Dent corn (34V52); 1 ppm): 114% | Increase/decrease of underground part (Dent corn (34V52); 1 ppm): 126% | Increase/decrease of above-ground part (Dent corn (34V52); 3 ppm): 111% | Increase/decrease of underground part (Dent corn (34V52); 3 ppm): 123% | Increase/decrease of above-ground part (Dent corn (34V52); 10 ppm): 104% | Increase/decrease of underground part (Dent corn (34V52); 10 ppm): 103% | Weight of above-ground part FW (Dent corn (34V52); drenching 1 ppm): 6.5 mg/individual | Weight of underground part FW (Dent corn (34V52); drenching 1 ppm): 5.1 mg/individual | Weight of above-ground part FW (Dent corn (34V52); drenching 3 ppm): 6.3 mg/individual | Weight of underground part FW (Dent corn (34V52); drenching 3 ppm): 5.0 mg/individual | Weight of above-ground part FW (Dent corn (34V52); drenching 10 ppm): 5.9 mg/individual | Weight of underground part FW (Dent corn (34V52); drenching 10 ppm): 4.2 mg/individual | Preventive value (Phythophthora infestans; 10 ppm foliar spraying on tomato (Regina)): 37.4 | Preventive value (Phythophthora infestans; 30 ppm foliar spraying on tomato (Regina)): 86.0 | Preventive value (Phythophthora infestans; 100 ppm foliar spraying on tomato (Regina)): 92 and 92.1 | Root length, Average (lettuce (Green Wave) [2]): 22.87 mm | Root length, Increase rate (lettuce (Green Wave) [2]; non-addition group = 100.0): 137.6% | Fresh weight of above-ground part ([3]; Normal cultivation): 4.2 g | Fresh weight of above-ground part ([3]; Salt treatment (75 mM NaCl, 7 days)): 3.6 g | Weight of above-ground part, Increase rate (Bent grass (Penncross); 0.06 ppm): 151.7% | Weight of above-ground part, Increase rate (Bent grass (Penncross); 0.6 ppm): 162.2% | Weight of above-ground part, Average (Bent grass (Penncross); drenching 0.06 ppm): 3.3 g | Weight of above-ground part, Average (Bent grass (Penncross); drenching 0.6 ppm): 3.6 g | Death of the above-ground part (FIG. 1) (Bent grass (Penncross); groups subjected to drenching treatment (0.06 to 0.6 ppm), after high-temperature treatment): no death was found | Number of sprouts, Average ([4]; 0.15 g/m^2, foliar spraying four times as wettable powder formulation containing 1% hesperidin): 111.33 number | Number of sprouts, Increase rate ([4]; 0.15 g/m^2): 189.8% | Number of sprouts, Average ([4]; 0.75 g/m^2, foliar spraying four times as wettable powder formulation containing 1% hesperidin): 112.00 number | Number of sprouts, Increase rate ([4]; 0.75 g/m^2): 190.9% | Germination rate, Increase rate (Cabbage (Okina) seeds; 100 ppm): 127.1% | Root length, Increase rate (Cabbage (Okina) seeds; 100 ppm): 189.7% | Germination rate, Increase rate (Cabbage (Okina) seeds; 1000 ppm): 150.3% | Root length, Increase rate (Cabbage (Okina) seeds; 1000 ppm): 224.6% | Root length, Average (Cabbage (Okina) seeds; 100 ppm): 43.6 mm | Root length, Average (Cabbage (Okina) seeds; 1000 ppm): 51.6 mm | Germination rate, Average (Cabbage (Okina) seeds; then soaked at 100 ppm): 66.2% | Germination rate, Average (Cabbage (Okina) seeds; then soaked at 1000 ppm): 78.3%
